We go through nine compounds from US8026218B2, “Bifunctional analgesic compounds for opioid receptor agonists and neurokinin-1 receptor antagonists” (The University of Arizona, priority 2006, dated 2011).

As a reminder, the IC50 is the concentration that inhibits the measured activity by half. As usually defined, the Emax is the greatest response seen or fitted, relative to the assay's reference. A word on the EC50: it is the concentration that produces a half-maximal response.

Assay [1] concerns the target T1, rat μ opioid receptors (rMOR) (Rattus norvegicus, UniProt P33535).
T1 construct: expressed in transfected cells; host or cells: HN9.10 neuroblastoma cell line, pCDNA3, neomycin-selected clones
The assay is described as follows: biochemical. In kind it is biochemical. Particulars: for Emax: read-out: GTP binding rMOR Emax.

A further assay relates to μ opioid receptors (GPI). Nature of the assay: Guinea pig isolated ileum (GPI) assay, opioid agonist.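 Further: inhibition of electrically evoked contractions (0.1 Hz, 0.4 msec, supramaximal voltage) in organ baths at 37 °C, contraction height 3 min after each cumulative dose versus the 1 min before dosing.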 Conditions: read-out: GPI μ-agonist IC50.
The target in assay [2] is T2, human δ opioid receptors (hDOR) (Homo sapiens, UniProt P41143).
T2 construct: expressed in transfected cells; host or cells: HN9.10 neuroblastoma cell line, pCDNA3, neomycin-selected clones
T2 sequence (P41143 whole entry): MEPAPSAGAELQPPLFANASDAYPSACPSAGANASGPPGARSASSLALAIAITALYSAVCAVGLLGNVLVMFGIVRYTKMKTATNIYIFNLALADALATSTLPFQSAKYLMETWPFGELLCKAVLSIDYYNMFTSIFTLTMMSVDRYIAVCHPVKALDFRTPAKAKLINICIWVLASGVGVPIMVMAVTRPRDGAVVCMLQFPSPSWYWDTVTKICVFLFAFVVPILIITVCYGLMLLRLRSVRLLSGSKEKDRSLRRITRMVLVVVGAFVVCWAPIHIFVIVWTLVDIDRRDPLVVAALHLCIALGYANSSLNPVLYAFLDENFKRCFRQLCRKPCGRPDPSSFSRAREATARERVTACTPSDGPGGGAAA
The assay is described as follows: [35S]GTP-γ-S binding assay, hDOR. The class given is biochemical. Particulars: read-out: GTP binding hDOR Emax.

SMILES strings stand for the structures. Like-named read-outs stand apart in the source and are kept apart here. Peptide text beside a SMILES is read from it.

T1 sequence (P33535 whole entry): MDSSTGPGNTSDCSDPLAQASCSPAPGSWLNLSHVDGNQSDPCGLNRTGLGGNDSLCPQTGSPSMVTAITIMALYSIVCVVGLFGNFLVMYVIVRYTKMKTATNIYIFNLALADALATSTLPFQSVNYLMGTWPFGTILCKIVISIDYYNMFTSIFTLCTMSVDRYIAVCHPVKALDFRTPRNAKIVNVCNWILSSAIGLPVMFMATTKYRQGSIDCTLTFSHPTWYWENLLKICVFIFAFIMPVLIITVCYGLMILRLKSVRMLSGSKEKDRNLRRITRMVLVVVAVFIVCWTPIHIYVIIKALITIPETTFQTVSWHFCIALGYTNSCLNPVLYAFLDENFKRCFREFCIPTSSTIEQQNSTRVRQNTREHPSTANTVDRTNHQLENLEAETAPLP
Experimental for μ opioid receptors (GPI): Guinea Pig Isolated Ileum Assay. […] These tissues were tied to gold chains with suture silk and mounted between platinum wire electrodes in 20 mL organ baths at a tension of 1 g and bathed in oxygenated (95:5 O2:CO2) Kreb's bicarbonate buffer at 37° C. and stimulated electrically (0.1 Hz, 0.4 msec duration) at supramaximal voltage. Following an equilibration period, compounds were added cumulatively to the bath in volumes of 14-60 μL until maximum inhibition was reached. A baseline PL-017 was constructed to determine tissue integrity and allow calculation of antagonist activity before opioid analog testing began.
For opioid data analysis, percentage inhibition was calculated using the average tissue contraction height for 1 min preceding the addition of the agonist divided by the contraction height 3 min after exposure to the dose of agonist. […] IC50 and Emax estimates were determined by computerized nonlinear least-squares analysis (the pharmacological statistics package FlashCalc: Dr. Michael Ossipov, University of Arizona, Tucson, Ariz.). […] A50 values represent the mean of not less than 4 tissues. A50 and Emax estimates were determined by computerized nonlinear least-squares analysis (FlashCalc).

As for `CSCC[C@H](N)C(=O)N1CCC[C@H]1C(=O)N[C@@H](CC(C)C)C(=O)N[C@@H](Cc1c[nH]c2ccccc12)C(=O)NCc1cc(C(F)(F)F)cc(C(F)(F)F)c1` [TY051] (HELM PEPTIDE1{M.P.L.W.[FC(F)(F)c1cc(CN[*:1])cc(C(F)(F)F)c1]}$$$$V2.0; N-terminus assumed), in assay [1] (Table 39), the “GTP binding rMOR EC50” value is “no response”.

As to `C[C@@H](NC(=O)[C@@H](N)Cc1ccc(O)cc1)C(=O)NCC(=O)N[C@@H](Cc1ccc(Cl)cc1)C(=O)NCC(=O)N[C@@H](Cc1c[nH]c2ccccc12)C(=O)OCc1cc(C(F)(F)F)cc(C(F)(F)F)c1` [NP46] (HELM PEPTIDE1{Y.[dA].G.[O=C([C@H](Cc1ccc(Cl)cc1)N[*:1])[*:2]].G.W.[FC(F)(F)c1cc(CO[*:1])cc(C(F)(F)F)c1]}$$$$V2.0; N-terminus assumed), the IC50 in the assay on μ opioid receptors (GPI) (Table 37) amounted to 124 nM.

`CC(C)C[C@H](NC(=O)[C@@H]1CCCN1C(=O)[C@H](Cc1ccccc1)NC(=O)[C@H](Cc1ccccc1)NC(=O)CNC(=O)[C@@H](C)NC(=O)[C@@H](N)Cc1ccc(O)cc1)C(=O)N[C@@H](Cc1c[nH]c2ccccc12)C(=O)N(C)Cc1cc(C(F)(F)F)cc(C(F)(F)F)c1` [TY017] (HELM PEPTIDE1{Y.[dA].G.F.F.P.L.W.[CN(Cc1cc(C(F)(F)F)cc(C(F)(F)F)c1)[*:1]]}$$$$V2.0; N-terminus assumed): the Emax in assay [2] (Table 39) was found to be 125%; in assay [1] (Table 39), 62.4%.

In the case of `CSCC[C@H](NC(=O)[C@H](Cc1ccccc1)NC(=O)CNC(=O)[C@@H](C)NC(=O)[C@@H](N)Cc1ccc(O)cc1)C(=O)N[C@H](CC(C)C)C(=O)N[C@@H](CC(C)C)C(=O)N[C@@H](Cc1c[nH]c2ccccc12)C(=O)OCc1cc(C(F)(F)F)cc(C(F)(F)F)c1` [TY021] (HELM PEPTIDE1{Y.[dA].G.F.M.[dL].L.W.[FC(F)(F)c1cc(CO[*:1])cc(C(F)(F)F)c1]}$$$$V2.0), the Emax in assay [2] (Table 39) stood at 41.1%; in assay [1] (Table 39), 51.4%.

As for `C[C@@H](NC(=O)[C@@H](N)Cc1ccc(O)cc1)C(=O)NCC(=O)N[C@@H](Cc1ccccc1)C(=O)N[C@@H](Cc1c[nH]c2ccccc12)C(=O)OCc1cc(C(F)(F)F)cc(C(F)(F)F)c1` [NP36] (HELM PEPTIDE1{Y.[dA].G.F.W.[FC(F)(F)c1cc(CO[*:1])cc(C(F)(F)F)c1]}$$$$V2.0; N-terminus assumed), the IC50 in the assay on μ opioid receptors (GPI) (Table 36) stood at 523 nM.

Regarding `CSCC[C@H](NC(=O)[C@H](Cc1ccccc1)NC(=O)CNC(=O)[C@@H](C)NC(=O)[C@@H](N)Cc1ccc(O)cc1)C(=O)N1CCC[C@@H]1C(=O)N[C@@H](CC(C)C)C(=O)N[C@@H](Cc1c[nH]c2ccccc12)C(=O)OCc1cc(C(F)(F)F)cc(C(F)(F)F)c1` [TY024], the Emax is 21% in assay [2] and 28% in assay [1].

`CCCC[C@H](NC(=O)[C@H](Cc1ccccc1)NC(=O)CNC(=O)[C@@H](C)NC(=O)[C@@H](N)Cc1c(C)cc(O)cc1C)C(=O)N1CCC[C@H]1C(=O)N[C@@H](CC(C)C)C(=O)N[C@@H](Cc1c[nH]c2ccccc12)C(=O)NCc1cc(C(F)(F)F)cc(C(F)(F)F)c1` [TY050]: the Emax in assay [1] (Table 39) was found to be 45%.

Regarding `CSCC[C@H](NC(=O)[C@H](Cc1ccccc1)NC(=O)CNC(=O)[C@@H](C)NC(=O)[C@@H](N)Cc1ccc(O)cc1)C(=O)NC(C)(C)C(=O)N[C@@H](CC(C)C)C(=O)N[C@@H](Cc1c[nH]c2ccccc12)C(=O)OCc1cc(C(F)(F)F)cc(C(F)(F)F)c1` [TY022], in assay [1] (Table 39), the Emax came out at 32%.

With `CC(C)C[C@H](NC(=O)[C@@H]1CCCN1C(=O)[C@H](Cc1ccccc1)NC(=O)[C@H](Cc1ccccc1)NC(=O)CNC(=O)[C@@H](C)NC(=O)[C@@H](N)Cc1ccc(O)cc1)C(=O)N[C@@H](Cc1c[nH]c2ccccc12)C(=O)NCc1cc(C(F)(F)F)cc(C(F)(F)F)c1` [TY015] (HELM PEPTIDE1{Y.[dA].G.F.F.P.L.W.[FC(F)(F)c1cc(CN[*:1])cc(C(F)(F)F)c1]}$$$$V2.0; N-terminus assumed), the Emax was 142% in assay [2] (Table 39) and 64.4% in assay [1] (Table 39). Moreover, the EC50 in assay [1] (Table 39, read-out: GTP binding rMOR EC50) worked out at 176 nM.
